Measurements from PubChem BioAssay AID540269 (Sanford-Burnham Center for Chemical Genomics, 2011).
The source made the active and inactive calls. The rule behind the calls is not given here.

The molecules below were run against glucose-6-phosphate dehydrogenase-6-phosphogluconolactonase (Plasmodium falciparum 3D7) (assay: PfG6PD enzyme inhibitors, kinetic NADPH readout, dose response, orthogonal assay, biochemical, kinetic NADPH detection (AID 540269)). Conditions: purified PfG6PD-6PGL.

Row | Structure (SMILES) | IC50
1 | CN1C(=O)C(N=Nc2ccc([N+](=O)[O-])cc2)SC1=S (stereo unspecified) | > 80 µM (inactive)
2 | CCNc1cc2c(cc1O)CCC1C2CCC2(C)C(O)CCC12 (stereo unspecified) | 35.7 µM
3 | CCOC(=O)C1CCCN(C(=O)Cn2sc3nc(C)cc(C)c3c2=O)C1 (stereo unspecified) | 50.7 µM
4 | CC1=C(O)C(=O)C=C2C1=CC=C1C2(C)CCC2(C)C3CC(C)(C(=O)O)CCC3(C)CCC12C (stereo unspecified) | 45.7 µM
5 | CCSc1nc2cc(S(=O)(=O)N3CCOCC3)ccc2o1 | > 80 µM (inactive)
6 | Cc1ccc(S(=O)(=O)SC/C=C/CSS(=O)(=O)c2ccc(C)cc2)cc1 | 73 µM
7 | COc1ccc(S(=O)(=O)Nc2cc(SCC(=O)O)c(O)c3ccccc23)cc1 | 44.9 µM
8 | O=c1c2ccccc2[se]n1-c1ccccc1 | 22.1 µM
9 | Nc1cc(N)c(OCC(F)(F)F)cc1OCC(F)(F)F | > 80 µM (inactive)
10 | COc1cccc(C=Nc2cc(C(C)C)c(O)cc2C)c1O | > 80 µM (inactive)
11 | CCOc1ccccc1C=NNC(=O)CCCCC(=O)NN=Cc1ccccc1OCC | > 80 µM (inactive)
12 | COC(=O)c1cc2c(n1S(=O)(=O)c1ccc(C)cc1)C(=O)C(=O)c1[nH]cc(C(=O)OCc3ccccc3)c1-2 | > 80 µM (inactive)
13 | CCn1c(SCC(=O)Nc2ccccc2OC)nnc1-c1cnccn1 | > 80 µM (inactive)
14 | CCCn1cc(S(=O)(=O)CC(=O)Nc2ccc(OC)cc2OC)c2ccccc21 | > 80 µM (inactive)
15 | COc1c2ccoc2c(OCC=C(C)C)c2oc(=O)ccc12 | > 80 µM (inactive)
16 | Cc1ccc2nc(SCC(=O)N/N=C/c3ccco3)cc(C)c2c1 | > 80 µM (inactive)
17 | O=C(Nc1ccc(N2CCOCC2)c(Cl)c1)c1ccc(Cl)cc1 | > 80 µM (inactive)
18 | [O-]/[N+](=C/c1cccnc1)c1ccc(Br)cc1 | 77.1 µM
19 | COc1cc(N)c2ncccc2c1OC | > 80 µM (inactive)
20 | CCN(CC)c1nc(N)nc(NS(=O)(=O)c2ccc(Cl)cc2)n1 | > 80 µM (inactive)
21 | Cc1cccc(C(=O)Nc2sc3c(c2C(=O)O)CCCC3)c1 | 32.9 µM
22 | Cc1ccc(/C=C/C(=O)NCCc2cccc(Cl)c2)o1 | > 80 µM (inactive)

Row | Structure (SMILES) | IC50
23 | C[C@]12CC[C@@H]3c4cc(O)c(O)cc4CC[C@H]3[C@@H]1CC[C@@H]2O | 25 µM
24 | COc1cc(C(=O)ON=C2C=C(C)C(=O)C(C)=C2)cc(OC)c1OC | > 80 µM (inactive)
25 | Cc1ccccc1N/C(SCc1cccc(Br)c1)=C(/C#N)C(N)=O | > 80 µM (inactive)
26 | Cc1ccc2nc(-c3ccc(NC(=S)NC4CC(C)(C)NC(C)(C)C4)cc3)sc2c1 | > 80 µM (inactive)
27 | Cc1ccc(NC(=O)c2ccc(Cl)c(N3C(=O)C=CC3=O)c2)cc1 | 28.2 µM
28 | CCCN1CCc2cccc3c2[C@H]1Cc1ccc(O)c(O)c1-3 | > 80 µM (inactive)
29 | CCN(CC)c1ccc(NC(=O)c2ccccc2Br)cc1S(=O)(=O)Nc1ccccc1OC | 59.2 µM
30 | COc1cc(CN2CCN(CCCc3ccccc3)C(CCO)C2)cc(OC)c1O (stereo unspecified) | > 80 µM (inactive)
31 | Cc1nn(-c2ccccc2)c(Cl)c1/C=N/Nc1nc2ccccc2n1C | > 80 µM (inactive)
32 | Cc1cc(O)c(C(C)C)cc1N=Cc1ccccc1[N+](=O)[O-] | > 80 µM (inactive)
33 | Cc1ccccc1OCC(=O)NCC(=O)OCC(=O)c1ccc([N+](=O)[O-])cc1 | 67.4 µM
34 | COc1cc(NCc2ccccc2)c2ncn(C(C)C)c2c1 | > 80 µM (inactive)
35 | CC1=CC(C)(C)Nc2ccc(OC(=O)CN3C(=O)CCC3=O)cc21 | 63.2 µM
36 | [O-][N+](=Cc1ccccc1)c1ccc(Cl)cc1 | > 80 µM (inactive)
37 | COc1cccc(/C=N/NC(=O)c2c(C)nc3ccc(Br)cn23)c1 | 52.3 µM
38 | NCCc1cc(O)c(O)cc1O | 39.1 µM
39 | CC(=O)Nc1ccc2c(c1)Cc1cc(N3C(=O)C=CC3=O)ccc1-2 | 27.2 µM
40 | O=C(NC1=CC(=O)c2ccccc2C1=O)c1ccccc1 | 38.2 µM
41 | O=C(CNC(=O)c1cccs1)NCC(=O)OCC(=O)c1ccc([N+](=O)[O-])cc1 | 62.9 µM
42 | CCC(C)N(CCNC(=O)c1ccc2c(c1)NC(=O)c1ccccc1S2)C1CCCCC1 (stereo unspecified) | 6.35 µM
43 | O=c1c2ccccc2sn1-c1cccc(Cl)c1 | 14.2 µM
44 | COc1ccc(CCn2c(NN)nc3c2c(=O)[nH]c(=O)n3C)cc1 | 22.4 µM

Row | Structure (SMILES) | IC50
45 | Cc1cc(C)c[n+](C2=C([O-])c3ccccc3C(=O)/C2=N\S(=O)(=O)c2cccs2)c1 | > 80 µM (inactive)
46 | O=C(Nc1nnc(S(=O)(=O)N2CCOCC2)s1)c1cccc(Br)c1 | 60.2 µM
47 | COCc1cc(=O)n2[nH]c(C(C)(C)C)cc2n1 | 43.2 µM
48 | CCc1ccccc1N1CSC2=C(C#N)C(c3ccccc3F)CC(=O)N2C1 (stereo unspecified) | > 80 µM (inactive)
49 | CN1CCN(C(=S)c2ccc(Br)cc2)CC1 | > 80 µM (inactive)
50 | COc1cccc(CNc2ccc3[nH]c(=O)[nH]c3c2)c1OCc1ccccc1Cl | > 80 µM (inactive)
51 | COC1=C(Br)C(=O)c2nc(C)ccc2C1=O | > 80 µM (inactive)
52 | O=S(=O)(Nc1ccccc1F)c1cccc(NC(=S)NCCN2CCOCC2)c1 | 50.2 µM
53 | O=c1c2ccccc2sn1-c1ccc(Cl)cc1 | 17.1 µM
54 | Cc1cnc(C=NNC(N)=S)c2cccc(N)c12 | > 80 µM (inactive)
55 | Cc1ccnc(-n2sc3ccccc3c2=O)n1 | 26.4 µM
56 | CC1(C)Cc2c(sc3nc4n(-c5ccccc5)c(=O)c(CCC(=O)O)nn4c(=O)c23)CO1 | 11.7 µM
57 | Cc1ccc(NC(=O)c2cc(C)n(-c3ccccc3)c2C)cc1 | > 80 µM (inactive)
58 | Cc1[nH]c2ccccc2c1/C=N/Nc1nncn1N | > 80 µM (inactive)
59 | N#Cc1ccc(Oc2cccc3cccnc23)c([N+](=O)[O-])c1 | > 80 µM (inactive)
60 | O=C(CSc1nc2ccccc2[nH]1)NC1CCCc2ccccc21 (stereo unspecified) | > 80 µM (inactive)
61 | COc1cc(N=Cc2c(CO)cnc(C)c2O)cc(OC)c1OC | 30.5 µM
62 | NCCNc1ccc(C(=O)N2c3ccccc3Sc3ccccc32)cc1[N+](=O)[O-] | 23.5 µM
63 | CC(=O)c1cccc(NC(=O)c2cnn(-c3ccccc3)c2C)c1 | 58.4 µM
64 | CCc1ccc(S(=O)(=O)Nc2cc(SCC(=O)O)c(O)c3ccccc23)cc1 | 44.6 µM
65 | CC(SCC(=O)Nc1ccccc1)c1nc2ccccc2c(=O)[nH]1 (stereo unspecified) | > 80 µM (inactive)
66 | NS(=O)(=O)c1ccc(-c2ccc(C=C3C(=O)NC(=O)NC3=O)o2)cc1 | 40.2 µM

Row | Structure (SMILES) | IC50
67 | CN1/C(=C\C(=O)c2cccs2)Sc2ccccc21 | 26.1 µM
68 | COc1ccc(OCc2nnc3n2N=C(c2ccccc2)C(CC(=O)O)S3)cc1 (stereo unspecified) | > 80 µM (inactive)
69 | COc1ccc(N2CSC3=C(C#N)C(c4cc(OC)c(OC)cc4OC)CC(=O)N3C2)c(OC)c1 (stereo unspecified) | > 80 µM (inactive)
70 | COc1ccc(C(=O)Nc2cc(Cl)ccc2C(=O)O)cc1 | 17.7 µM
71 | Cc1cc(C)nc(NC(N)=NCCc2ccccc2)n1 | > 80 µM (inactive)
72 | Cc1[nH]c2ccccc2c1/C=N/NC(=O)c1cccc(S(=O)(=O)Nc2ccccc2Cl)c1 | 59.3 µM
73 | O=C(CN1C(=O)C2C3C=CC(C3)C2C1=O)OCC(=O)c1ccc([N+](=O)[O-])cc1 (stereo unspecified) | > 80 µM (inactive)
74 | CN=c1scc(C)n1/N=C/c1ccc(O)c(O)c1O | 24.8 µM
75 | Cc1ccc(S(=O)c2ccc([N+](=O)[O-])c3nonc23)cc1 (stereo unspecified) | > 80 µM (inactive)
76 | Cc1c(N=C2C=C(Br)C(=O)C(Br)=C2)c(=O)n(-c2ccccc2)n1C | > 80 µM (inactive)
77 | CN(C)c1ccc2nc3ccc(=O)cc-3sc2c1 | > 80 µM (inactive)
78 | CCN1/C(=C/C=C/C=C/C=C/c2sc3ccccc3[n+]2CC)Sc2ccccc21 | > 80 µM (inactive)
79 | COC1=C(N)C(=O)c2nc(C)ccc2C1=O | > 80 µM (inactive)
80 | Cc1nc(COC(=O)c2cc(O)c3ccccc3c2O)cs1 | > 80 µM (inactive)
81 | COc1cc(N(C)C)ccc1C=c1c2ccccc2n2c1cc(-c1ccccc1)[n+]2C | > 80 µM (inactive)
82 | Cc1cccc(OCC(=O)NCC(=O)N/N=C/c2ccccc2)c1 | > 80 µM (inactive)
83 | COc1cc(/C=C2\SC(c3ccc(C)cc3)=NC2=O)cc(OC)c1O | > 80 µM (inactive)
84 | COc1cc(-c2cc(=O)c3c(O)c(OC)c(OC)c(O)c3o2)ccc1O | 40.3 µM
85 | O=C(CCc1ccc(S(=O)(=O)N2CCOCC2)cc1)N/N=C/c1ccc(O)c(O)c1O | 36.5 µM
86 | CN1CCc2cccc3c2[C@H]1Cc1ccc(O)c(O)c1-3 | > 80 µM (inactive)
87 | O=C(OCC(=O)c1ccc([N+](=O)[O-])cc1)/C(=C\c1ccc(Cl)cc1)NC(=O)c1ccccc1 | > 80 µM (inactive)
88 | Cc1ccc(NC(=O)Cn2sc3ccccc3c2=O)cc1 | 14.4 µM

Row | Structure (SMILES) | IC50
89 | O=C(Nc1ccc([N+](=O)[O-])cc1Cl)c1cc(Cl)ccc1O | > 80 µM (inactive)
90 | CC1=CC(=NOC(=O)/C=C/c2ccccc2)C=C(C)C1=O | > 80 µM (inactive)
91 | C/C(Cn1nnc([N+](=O)[O-])n1)=N\NC(=O)c1ccc(O)cc1 | > 80 µM (inactive)
92 | O=C1C(Cl)=C(NCCc2ccccc2)C(=O)c2ccccc21 | 70.3 µM
93 | Cc1ccc(NC(=O)c2cc(N3C(=O)C=CC3=O)ccc2Cl)cc1C | 43.5 µM
94 | CC1=CC(C)(C)Nc2ccc(OC(=O)CN3C(=O)c4cccc5cccc(c45)C3=O)cc21 | 76.9 µM
95 | CCn1c2ccccc2c2cc(/C=N/n3cn[nH]c3=S)ccc21 | 9.07 µM
96 | Nc1[nH]c(=O)[nH]c(=O)c1N=Cc1ccccc1 | 20.6 µM
97 | CSc1nnc(NC(=O)c2ccc3c(c2)OCO3)s1 | 27.1 µM
98 | CC1(OC(=O)C2CCCC2)C(=O)C=C2C=C(c3ccsc3)N(CC3CC3)C=C2C1=O (stereo unspecified) | > 80 µM (inactive)
99 | CC(CNc1ccccc1O)C(=O)O (stereo unspecified) | > 80 µM (inactive)
100 | Cc1c(C(=O)N(Cc2ccccc2Cl)C2CCS(=O)(=O)C2)oc2ccccc12 (stereo unspecified) | > 80 µM (inactive)
101 | CC1COCC(C)N1C1=C(Cl)C(=O)c2ccccc2C1=O (stereo unspecified) | 42.4 µM
102 | Cc1ccc(-c2csc(NC(=O)c3ccccc3F)c2C(=O)O)cc1 | 53.7 µM
103 | Cc1cc(C)c2c(=O)n(CC(=O)Nc3cccc(F)c3)sc2n1 | 41.6 µM
104 | Cc1ccc(NS(=O)(=O)c2ccccc2Cl)c2c1CC(C)(C)O2 | > 80 µM (inactive)
105 | Cc1noc(C(=O)Nc2sc3c(c2C#N)CCC3)c1Cl | > 80 µM (inactive)
106 | COc1cccc(C2(c3cccc(OC)c3)CC2C(=O)Nc2ccc(F)cc2)c1 (stereo unspecified) | > 80 µM (inactive)
